Results as given in patent publication US8673909B2, “Indole compounds and methods for treating visceral pain” (NeurAxon, Inc., priority 2007, dated 2014).
Entries after “also recorded” stand apart in the source; their conditions may differ.

Experiments:
[1] = target: T1, Nitric oxide synthase (neuronal, human recombinant) nNOS (Homo sapiens, UniProt P29475); assay: nNOS (human) enzyme assay, [3H]-L-arginine to L-citrulline; assay type: biochemical; details: for IC50: Table 10, human nNOS, read-out: nNOSh; for e/n: Table 10, ratio eNOS/nNOS
T1 construct: purchased Axxora LLC ALX-201-068
T1 sequence (P29475 whole entry): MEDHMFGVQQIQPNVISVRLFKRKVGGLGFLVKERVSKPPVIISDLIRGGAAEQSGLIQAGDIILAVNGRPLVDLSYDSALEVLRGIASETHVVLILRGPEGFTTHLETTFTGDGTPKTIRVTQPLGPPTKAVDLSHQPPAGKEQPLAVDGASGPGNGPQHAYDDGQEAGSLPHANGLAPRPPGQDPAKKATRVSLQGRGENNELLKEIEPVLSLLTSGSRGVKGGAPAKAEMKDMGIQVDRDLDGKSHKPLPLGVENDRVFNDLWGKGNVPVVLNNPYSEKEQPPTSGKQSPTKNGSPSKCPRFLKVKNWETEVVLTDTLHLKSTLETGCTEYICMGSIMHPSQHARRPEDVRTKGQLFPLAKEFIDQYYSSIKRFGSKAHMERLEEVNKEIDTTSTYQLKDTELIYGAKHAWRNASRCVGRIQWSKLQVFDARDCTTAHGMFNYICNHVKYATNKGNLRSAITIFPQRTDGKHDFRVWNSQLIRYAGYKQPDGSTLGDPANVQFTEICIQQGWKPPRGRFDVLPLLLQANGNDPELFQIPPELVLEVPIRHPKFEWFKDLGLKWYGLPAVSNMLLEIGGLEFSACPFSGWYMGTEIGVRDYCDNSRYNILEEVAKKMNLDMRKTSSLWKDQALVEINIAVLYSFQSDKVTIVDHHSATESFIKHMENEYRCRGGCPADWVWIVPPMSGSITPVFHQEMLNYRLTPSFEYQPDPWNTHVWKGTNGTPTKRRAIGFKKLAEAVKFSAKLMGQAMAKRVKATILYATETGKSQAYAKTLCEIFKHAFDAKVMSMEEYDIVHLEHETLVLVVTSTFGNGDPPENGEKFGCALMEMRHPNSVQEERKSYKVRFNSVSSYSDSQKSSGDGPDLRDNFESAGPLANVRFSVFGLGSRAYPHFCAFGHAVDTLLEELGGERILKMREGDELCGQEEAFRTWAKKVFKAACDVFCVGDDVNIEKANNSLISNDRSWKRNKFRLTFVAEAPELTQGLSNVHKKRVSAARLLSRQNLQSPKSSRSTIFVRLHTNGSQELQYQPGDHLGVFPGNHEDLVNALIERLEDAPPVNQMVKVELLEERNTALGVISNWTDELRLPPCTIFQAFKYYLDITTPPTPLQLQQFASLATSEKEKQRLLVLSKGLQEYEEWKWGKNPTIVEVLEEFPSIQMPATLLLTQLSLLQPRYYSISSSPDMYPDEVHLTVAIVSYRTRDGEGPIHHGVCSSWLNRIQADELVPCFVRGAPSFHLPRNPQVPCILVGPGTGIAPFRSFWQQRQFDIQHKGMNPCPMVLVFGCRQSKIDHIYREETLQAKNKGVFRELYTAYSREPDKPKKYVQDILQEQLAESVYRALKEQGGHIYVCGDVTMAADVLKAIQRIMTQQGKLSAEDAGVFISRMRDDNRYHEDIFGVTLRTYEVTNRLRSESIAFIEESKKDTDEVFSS
Protocol: nNOS (Human), eNOS (Human) Enzyme Assay
Human nNOS and eNOS Protocol:
Procedure for Human nNOS and eNOS
Primary stock solutions of test compounds at a concentration of 6 mM are prepared. The primary stock solutions of each test compound are prepared freshly in distilled water on the day of study. […] Concentration range of test compound utilized for nNOS are 0.001 to 300 μM and for eNOS are 0.003 to 1000 μM. The vehicle of the test compound or inhibitor is used as blank control.
All incubations are performed in duplicate:
Prepare the reaction mixture on ice by adding the following components with a micropipette to a polypropylene microcentrifuge tube:
Total reaction volume is 60 μL.
Mix using a vortex mixer and incubate the above reaction mixture at 37° C. in an incubator for 30 minutes.
Add 400 μL of ice-cold Stop Buffer at the end of the incubation period to stop the reaction. (The EDTA in the Stop Buffer chelates all of the available calcium.)
Mix using a vortex mixer and transfer the reaction samples to spin cups and centrifuge using a microcentrifuge, at 13,000 rpm for 30 sec. at room temperature.
Remove the spin cups from the holder and transfer 450 μL of eluate (containing the unbound L-citrulline) to scintillation vials. Add 3 mL of scintillation fluid and quantify the radioactivity in a liquid scintillation counter.
Calculation of IC50 Values:
Data is analyzed using a Sigmoidal dose-response (variable slope) curve to determine the IC50 value of the test compound. Y=Bottom+(Top−Bottom)/(1+10^((Log IC50−X)*Hill Slope))

[2] = system: rats with L5/L6 spinal nerve ligation; assay: Chung spinal nerve ligation (SNL) model of neuropathic-like pain; assay type: in vivo; details: rat, 30 mg/kg i.p.
Protocol: (a) Chung Model of Injury-induced Neuropathic-like Pain: The experimental designs for the Chung Spinal Nerve Ligation SNL Model assay for neuropathic pain are depicted in the Figure below. Nerve ligation injury was performed according to the method described by Kim and Chung (Kim and Chung, Pain 50:355-363, 1992). This technique produces signs of neuropathic dysesthesias, including tactile allodynia, thermal hyperalgesia, and guarding of the affected paw. Rats were anesthetized with halothane, and the vertebrae over the L4 to S2 region were exposed. The L5 and L6 spinal nerves were exposed, carefully isolated, and tightly ligated with 4-0 silk suture distal to the DRG. After ensuring homeostatic stability, the wounds were sutured, and the animals allowed to recover in individual cages. Sham-operated rats were prepared in an identical fashion except that the L5/L6 spinal nerves were not ligated. […] After a period of recovery following the surgical intervention, rats show enhanced sensitivity to painful and normally non-painful stimuli.

5-HT1D = 5-HT1D (Bos taurus, UniProt F1MMU1); assay: 5-HT1D binding assay (agonist radioligand), bovine caudate membranes; details: Table 11, bovine 1D receptor binding; read-out: 5HT1D
Sequence of 5-HT1D (F1MMU1 1-377): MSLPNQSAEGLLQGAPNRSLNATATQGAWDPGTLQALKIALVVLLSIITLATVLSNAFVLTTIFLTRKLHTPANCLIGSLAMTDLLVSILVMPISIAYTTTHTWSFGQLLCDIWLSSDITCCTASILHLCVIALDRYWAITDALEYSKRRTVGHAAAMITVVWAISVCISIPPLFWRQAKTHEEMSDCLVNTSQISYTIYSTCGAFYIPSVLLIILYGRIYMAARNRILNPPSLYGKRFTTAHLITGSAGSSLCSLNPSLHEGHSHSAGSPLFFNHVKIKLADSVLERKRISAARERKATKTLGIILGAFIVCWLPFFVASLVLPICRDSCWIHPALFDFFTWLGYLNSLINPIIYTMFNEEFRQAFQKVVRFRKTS
Protocol: 5-HT1D binding assays (agonist radioligand) were performed using bovine caudate membranes according to the methods of Heuring and Peroutka (J. Neurosci., 7: 894-903 (1987)). 5-HT1B (rat cerebral cortex) binding assays (agonist radioligand) were performed according to the method of Hoyer et. al. (Eur. J. Pharmacol., 118: 1-12 (1995)). For the purpose of result analysis, the specific ligand binding to the receptors is defined as the difference between the total binding and the nonspecific binding as determined in the presence of an excess of unlabelled ligand. The results are expressed as a percent of control specific binding obtained in the presence of the test compounds.

[3] = Human liver microsome in vitro metabolic stability assay; assay type: in vitro ADME; details: for Peak Area Ratio 0 min / Peak Area Ratio 15 min / Peak Area Ratio 30 min / Peak Area Ratio 60 min: human liver microsomes
Protocol: The compounds (10 μM) were incubated with pooled human liver microsomes in the presence and absence of the co-factor, β-Nicotinamide adenine dinucleotide phosphate (NADP^+), required for oxidative metabolism by the Cytochrome P-450 (CYP) and flavin containing monooxygenase (FMO) enzymes. A tandem liquid chromatography mass spectrometry (LC-MS/MS) method was developed and/or qualified for each compound for measuring relative stability of 6a, 6b, and 18 in the terminated reaction mixtures. The relative disappearance of the test compounds following 15, 30, and 60 min of incubation with liver microsomes, NADP^+, and an NADPH-regenerating system was determined in duplicate samples. 6a, 6b, and 18 stability following 0 and 60 min of incubation with liver microsomes in the absence of NADP^+ was also determined.
Samples for each test compound generated from the assay were analyzed as one batch by the qualified LC-MS/MS method. The sample batch consisted of the following: initial system check standards (three replicates), the assay samples (in duplicate) and the final system check standards (three replicates). A batch was considered acceptable if the system check injection acceptance criteria described above was met.
The study was conducted with cryopreserved human liver microsomes, pooled from 15 donors (mixed pool of male and female donors). Pooled donor microsomes were used in order to represent an “average” metabolic activity. The microsomes have been characterized by the supplier for Phase I (CYP1A2, CYP2A6, CYP2B6, CYP2C8, CYP2C9, CYP2C19, CYP2D6, CYP2E1, CYP3A4, CYP4A11 and FMO) and Phase II (UGT1A1, UGT1A4 and UGT1A9) enzymatic activity.
1. The assay was performed with 0.5 mg/mL human liver microsomes in 50 mM potassium phosphate buffer, pH 7.4 (PPB), and in the presence of an NADPH regenerating system (1.3 mM NADP^+, 3.3 mM glucose-6-phosphate, 0.4 U/mL glucose-6-phosphate dehydrogenase) and 3.3 mM MgCl2. All incubations were performed in duplicate. One concentration of test compound was tested (10 μM). 2. A stock solution of microsomes (20 mg/mL) was thawed in a 37° C. water bath on the day of the assay and then immediately placed on ice. The microsomes were then diluted with an appropriate volume of PPB, such that the final protein concentration in the assay was 0.5 mg/mL, and the final PPB concentration was 50 mM. 3. An appropriate aliquot of the 1 mM stock solution of the test compounds (in water) was added to the diluted microsomes, and then the mixture was warmed to 37° C. for 5 min in an incubator. […] These samples represent the time zero samples. 4. An aliquot (375 μL) of the pre-warmed liver microsomes and test compound mixture was dispensed into a well of a 24-well plate. A 125 μL aliquot of pre-warmed (37° C. for 5 min) 4-fold concentrated NADPH regenerating system solution was then added to start the reaction. Reaction mixtures (0.5 mL) were incubated in a shaking incubator (150 rpm) at 37° C. 5. One hundred μL of the reaction mixture was sampled following 15, 30, and 60 min of incubation. Each sample with test compound was immediately added to a chilled labeled centrifuge tube containing 100 μL of ice cold methanol to terminate the reaction. 6. All samples were mixed by vortex and then centrifuged (15,000×g for 10 min at 4° C.) to pellet the protein. An aliquot of the supernatant from each sample was then transferred to a clean, labeled centrifuge tube and stored at −70° C. until bioanalysis. 7. […] 8. As a control, test compound was incubated with microsomes in the absence of NADP^+. One hundred μL of the reaction mixture was sampled for control samples following 0 and 60 min of incubation as detailed above. 9. Data sheets with the date of the experiment, the Study No., the compound IDs, the sampling times, a plate map and any deviations to the protocol were recorded.
The mean of the test compound to the internal standard peak area ratios were calculated for the zero time sample.

| Compound | IC50 [1] | e/n [1] | reversal of tactile hyperthesia [2] | reversal of thermal hyperalgesia (antihyperalgesic effect) [2] | IC50 (5-HT1D) | Peak Area Ratio 0 min ([3]; +NADP+, 10 μM) | Peak Area Ratio 15 min ([3]; +NADP+, 10 μM) | Peak Area Ratio 30 min ([3]; +NADP+, 10 μM) | Peak Area Ratio 60 min ([3]; +NADP+, 10 μM) | half-life at 10 μM ([3]; both sexes, pooled human liver microsomes, pH 7.4, human liver microsomes, with NADPH regenerating system, read-out: estimated half-life for disappearance from the microsomal reaction mixture) | Peak Area Ratio 0 min ([3]; −NADP+, 10 μM) | Peak Area Ratio 60 min ([3]; −NADP+, 10 μM) | metabolic stability in human liver microsomes ([3]; 60 min incubation, 10 μM) |
| --- | --- | --- | --- | --- | --- | --- | --- | --- | --- | --- | --- | --- | --- |
| CN1CCC(c2c[nH]c3ccc(NC(=N)c4cccs4)cc23)C1 (single isomer, unassigned) [Compound 6a, N-(3-(1-Methylpyrrolidin-3-yl)-1H-indol-5-yl)thiophene-2-carboximidamide] | 680 nM | 67 | not | only weakly | 170 nM | 25.8 | 25.8 | 23.7 | 19.4 | 132 min | 22.0 | 20.2 |  |
| CN1CCC(c2c[nH]c3ccc(NC(=N)c4cccs4)cc23)C1 (single isomer, unassigned) [Compound 6b, N-(3-(1-Methylpyrrolidin-3-yl)-1H-indol-5-yl)thiophene-2-carboximidamide] | 205 nM | 100 | reversal of tactile hyperthesia | reversal of thermal hyperalgesia; also recorded: clear antihyperalgesic effect | 79 nM | 20.6 | 20.5 | 21.4 | 20.5 |  | 20.2 | 20.6 | metabolically stable over 60 min of incubation |
